Several values for one entry are separate records, joined by “and”; a condition that tells them apart may be missing. Equal values may be shown once. Toxic doses and inconclusive results are not listed.
Tested on: CD2F1 mice, L1210 leukemia ip, survival T/C
Assay: NCI In Vivo Anticancer Drug Screen. Data for tumor model L1210 Leukemia (intraperitoneal) in CD2F1 (CDF1) mice
Conditions: higher = longer survival
Method in brief: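 Compound-dosed mice with transplantable tumor versus matched vehicle controls; endpoint ratio T/C reported.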

[1] = endpoint: mean survival time, dose: 100.0 mg/kg/injection, schedule: Q04DX003 (ip), vehicle: saline
[2] = endpoint: mean survival time, dose: 100.0 mg/kg/injection, schedule: Q04DX003 (ip), vehicle: saline with Tween-80
[3] = endpoint: mean survival time, dose: 200.0 mg/kg/injection, schedule: Q04DX003 (ip), vehicle: saline with Tween-80
[4] = endpoint: mean survival time, dose: 50.0 mg/kg/injection, schedule: Q04DX002 (ip), vehicle: saline with Tween-80
[5] = endpoint: mean survival time, dose: 100.0 mg/kg/injection, schedule: Q04DX002 (ip), vehicle: saline with Tween-80
[6] = endpoint: mean survival time, dose: 200.0 mg/kg/injection, schedule: Q04DX002 (ip), vehicle: saline with Tween-80
[7] = endpoint: mean survival time, dose: 400.0 mg/kg/injection, schedule: Q04DX002 (ip), vehicle: saline with Tween-80

SMILES: COc1cc(C=O)cc(O)c1O
- T/C (endpoint: mean survival time, dose: 50.0 mg/kg/injection, schedule: Q01DX001 (ip), vehicle: saline): 94 % of control
- T/C (endpoint: mean survival time, dose: 100.0 mg/kg/injection, schedule: Q01DX001 (ip), vehicle: saline): 96 % of control
- T/C [1]: 95 % of control
- T/C (endpoint: mean survival time, dose: 200.0 mg/kg/injection, schedule: Q01DX001 (ip), vehicle: saline): 91 % of control
- T/C (endpoint: mean survival time, dose: 200.0 mg/kg/injection, schedule: Q04DX003 (ip), vehicle: saline): 92 % of control
- T/C (endpoint: mean survival time, dose: 400.0 mg/kg/injection, schedule: Q01DX001 (ip), vehicle: saline): 89 % of control
- T/C (endpoint: mean survival time, dose: 400.0 mg/kg/injection, schedule: Q04DX003 (ip), vehicle: saline): 92 % of control

SMILES: NC(CS)=NCc1ccccc1
- T/C (endpoint: mean survival time, dose: 6.25 mg/kg/injection, schedule: Q04DX002 (ip), vehicle: saline): 108 % of control
- T/C (endpoint: mean survival time, dose: 12.5 mg/kg/injection, schedule: Q04DX002 (ip), vehicle: saline): 115 % of control
- T/C (endpoint: mean survival time, dose: 25.0 mg/kg/injection, schedule: Q04DX002 (ip), vehicle: saline): 101 % of control

SMILES: C=CCc1cccc(OC)c1OCCN(CC)CC
- T/C (endpoint: mean survival time, dose: 5.0 mg/kg/injection, schedule: Q01DX009 (ip), vehicle: saline with Tween-80): 102 % of control
- T/C (endpoint: mean survival time, dose: 5.0 mg/kg/injection, schedule: Q04DX003 (ip), vehicle: saline with Tween-80): 94 % of control
- T/C (endpoint: mean survival time, dose: 10.0 mg/kg/injection, schedule: Q01DX009 (ip), vehicle: saline with Tween-80): 96 % of control
- T/C (endpoint: mean survival time, dose: 10.0 mg/kg/injection, schedule: Q04DX003 (ip), vehicle: saline with Tween-80): 96 % of control
- T/C (endpoint: mean survival time, dose: 20.0 mg/kg/injection, schedule: Q01DX009 (ip), vehicle: saline with Tween-80): 91 % of control
- T/C (endpoint: mean survival time, dose: 20.0 mg/kg/injection, schedule: Q04DX003 (ip), vehicle: saline with Tween-80): 96 % of control

SMILES: CCCCNC(=O)NCCc1ccc(OC)c(OC)c1
- T/C (endpoint: mean survival time, dose: 100.0 mg/kg/injection, schedule: Q01DX009 (ip), vehicle: saline with Tween-80): 87 % of control
- T/C (endpoint: mean survival time, dose: 200.0 mg/kg/injection, schedule: Q01DX009 (ip), vehicle: saline with Tween-80): 89 % of control

SMILES: C[C@]12CC[C@H]3[C@@H](CCC4=C[C@@H](OC5OCC(OC6OC(CO)C(O)C(O)C6O)C(O)C5O)CC[C@@]43C=O)[C@@]1(O)CCC2C1=CC(=O)OC1 (some centres undefined)
- T/C (endpoint: mean survival time, dose: 0.16 mg/kg/injection, schedule: Q01DX009 (ip), vehicle: Klucel (hydroxypropylcellulose) (HPC)): 101 % of control
- T/C (endpoint: mean survival time, dose: 0.31 mg/kg/injection, schedule: Q01DX009 (ip), vehicle: Klucel (hydroxypropylcellulose) (HPC)): 101 % of control
- T/C (endpoint: mean survival time, dose: 0.62 mg/kg/injection, schedule: Q01DX009 (ip), vehicle: Klucel (hydroxypropylcellulose) (HPC)): 98 % of control
- T/C (endpoint: mean survival time, dose: 0.63 mg/kg/injection, schedule: Q01DX009 (ip), vehicle: Klucel (hydroxypropylcellulose) (HPC)): 102 % of control
- T/C (endpoint: mean survival time, dose: 1.25 mg/kg/injection, schedule: Q01DX009 (ip), vehicle: Klucel (hydroxypropylcellulose) (HPC)): 98 % of control and 107 % of control
- T/C (endpoint: mean survival time, dose: 2.5 mg/kg/injection, schedule: Q01DX009 (ip), vehicle: Klucel (hydroxypropylcellulose) (HPC)): 93 % of control and 95 % of control
- T/C (endpoint: mean survival time, dose: 5.0 mg/kg/injection, schedule: Q01DX009 (ip), vehicle: Klucel (hydroxypropylcellulose) (HPC)): 102 % of control
- T/C (endpoint: mean survival time, dose: 10.0 mg/kg/injection, schedule: Q01DX009 (ip), vehicle: Klucel (hydroxypropylcellulose) (HPC)): 108 % of control
- T/C (endpoint: mean survival time, dose: 20.0 mg/kg/injection, schedule: Q01DX009 (ip), vehicle: Klucel (hydroxypropylcellulose) (HPC)): 113 % of control
- T/C (endpoint: mean survival time, dose: 156.0 micrograms/kg/injection, schedule: Q01DX009 (ip), vehicle: Klucel (hydroxypropylcellulose) (HPC)): 104 % of control
- T/C (endpoint: mean survival time, dose: 312.0 micrograms/kg/injection, schedule: Q01DX009 (ip), vehicle: Klucel (hydroxypropylcellulose) (HPC)): 110 % of control
- T/C (endpoint: mean survival time, dose: 625.0 micrograms/kg/injection, schedule: Q01DX009 (ip), vehicle: Klucel (hydroxypropylcellulose) (HPC)): 100 % of control
- T/C (endpoint: mean survival time, dose: 1250.0 micrograms/kg/injection, schedule: Q01DX009 (ip), vehicle: Klucel (hydroxypropylcellulose) (HPC)): 92 % of control
- T/C (endpoint: mean survival time, dose: 2500.0 micrograms/kg/injection, schedule: Q01DX009 (ip), vehicle: Klucel (hydroxypropylcellulose) (HPC)): 101 % of control
- T/C (endpoint: mean survival time, dose: 5000.0 micrograms/kg/injection, schedule: Q01DX009 (ip), vehicle: Klucel (hydroxypropylcellulose) (HPC)): 101 % of control

SMILES: NCCCC(NN)C(=O)O (centres undefined)
- T/C (endpoint: mean survival time, dose: 7.5 mg/kg/injection, schedule: Q01DX009 (ip), vehicle: saline): 100 % of control
- T/C (endpoint: mean survival time, dose: 15.0 mg/kg/injection, schedule: Q01DX009 (ip), vehicle: saline): 97 % of control
- T/C (endpoint: mean survival time, dose: 30.0 mg/kg/injection, schedule: Q01DX009 (ip), vehicle: saline): 94 % of control

SMILES: O=[N+]([O-])O.[Er]
- T/C (endpoint: mean survival time, dose: 25.0 mg/kg/injection, schedule: Q04DX003 (ip), vehicle: saline): 96 % of control
- T/C (endpoint: mean survival time, dose: 50.0 mg/kg/injection, schedule: Q04DX003 (ip), vehicle: saline): 87 % of control
- T/C [1]: 87 % of control

SMILES: O=C(O)c1ccc([N+](=O)[O-])cc1C(=O)O.[NH-]C1CCCCC1[NH-].[Pt+2]
- T/C (endpoint: median survival time, dose: 3.12 mg/kg/injection, schedule: Q04DX003 (ip), vehicle: saline): 100 % of control and 110 % of control
- T/C (endpoint: median survival time, dose: 6.25 mg/kg/injection, schedule: Q04DX003 (ip), vehicle: saline): 121 % of control and 110 % of control
- T/C (endpoint: median survival time, dose: 12.5 mg/kg/injection, schedule: Q04DX003 (ip), vehicle: saline): 116 % of control
- T/C (endpoint: median survival time, dose: 50.0 mg/kg/injection, schedule: Q04DX003 (ip), vehicle: saline): 176 % of control
- T/C (endpoint: median survival time, dose: 100.0 mg/kg/injection, schedule: Q04DX003 (ip), vehicle: saline): 183 % of control and 282 % of control
- T/C (endpoint: median survival time, dose: 200.0 mg/kg/injection, schedule: Q04DX003 (ip), vehicle: saline): 97 % of control

SMILES: NC(=O)/C(=N/O)c1ccccc1
- T/C [2]: 104 % of control
- T/C [3]: 106 % of control
- T/C (endpoint: mean survival time, dose: 400.0 mg/kg/injection, schedule: Q04DX003 (ip), vehicle: saline with Tween-80): 102 % of control

SMILES: COC(=O)C1CCC2C3CC=C4CC(O)CCC4(C)C3CCC12C (centres undefined)
- T/C (endpoint: mean survival time, dose: 100.0 mg/kg/injection, schedule: Q01DX001 (ip), vehicle: saline with Tween-80): 98 % of control
- T/C (endpoint: mean survival time, dose: 200.0 mg/kg/injection, schedule: Q01DX001 (ip), vehicle: saline with Tween-80): 93 % of control
- T/C (endpoint: mean survival time, dose: 400.0 mg/kg/injection, schedule: Q01DX001 (ip), vehicle: saline with Tween-80): 93 % of control

SMILES: NC(N)=Nc1nc2ccccc2[nH]1
- T/C (endpoint: mean survival time, dose: 7.0 mg/kg/injection, schedule: Q01DX009 (ip), vehicle: saline): 104 % of control
- T/C (endpoint: mean survival time, dose: 14.0 mg/kg/injection, schedule: Q01DX009 (ip), vehicle: saline): 104 % of control
- T/C (endpoint: mean survival time, dose: 28.0 mg/kg/injection, schedule: Q01DX009 (ip), vehicle: saline): 98 % of control

SMILES: CC(C)CC(NC(=O)OCc1ccccc1)C(=O)NCCCCCCCCCCNC(=O)C(CC(C)C)NC(=O)OCc1ccccc1 (centres undefined)
- T/C (endpoint: mean survival time, dose: 10.0 mg/kg/injection, schedule: Q01DX Z (ip), vehicle: saline): 96 % of control
- T/C (endpoint: mean survival time, dose: 30.0 mg/kg/injection, schedule: Q01DX Z (ip), vehicle: saline): 97 % of control
- T/C (endpoint: mean survival time, dose: 100.0 mg/kg/injection, schedule: Q01DX Z (ip), vehicle: saline): 91 % of control
- T/C (endpoint: mean survival time, dose: 300.0 mg/kg/injection, schedule: Q01DX Z (ip), vehicle: saline): 97 % of control

SMILES: O=C(c1ccc2c(c1)OCO2)c1ccc[nH]1
- T/C [2]: 94 % of control
- T/C [3]: 91 % of control

SMILES: O/N=C1\CCCCC\C1=N/O.O/N=C1\CCCCC\C1=N/O.[Pt]
- T/C (endpoint: mean survival time, dose: 3.13 mg/kg/injection, schedule: Q04DX003 (ip), vehicle: dextrose): 104 % of control
- T/C (endpoint: mean survival time, dose: 6.25 mg/kg/injection, schedule: Q04DX003 (ip), vehicle: dextrose): 108 % of control
- T/C (endpoint: mean survival time, dose: 12.5 mg/kg/injection, schedule: Q04DX003 (ip), vehicle: dextrose): 98 % of control
- T/C (endpoint: mean survival time, dose: 25.0 mg/kg/injection, schedule: Q04DX003 (ip), vehicle: dextrose): 98 % of control and 101 % of control
- T/C (endpoint: mean survival time, dose: 50.0 mg/kg/injection, schedule: Q04DX003 (ip), vehicle: dextrose): 95 % of control and 106 % of control
- T/C (endpoint: mean survival time, dose: 100.0 mg/kg/injection, schedule: Q04DX003 (ip), vehicle: dextrose): 103 % of control
- T/C (endpoint: mean survival time, dose: 200.0 mg/kg/injection, schedule: Q04DX003 (ip), vehicle: dextrose): 96 % of control and 98 % of control

SMILES: Cc1ccc(S(=O)(=O)NNC(=O)c2ccccc2C(=O)O)cc1
- T/C [4]: 96 % of control
- T/C [5]: 100 % of control
- T/C [6]: 100 % of control
- T/C [7]: 96 % of control

SMILES: O=c1ccnc(SCc2ccccc2)[nH]1
- T/C [5]: 105 % of control
- T/C [6]: 101 % of control
- T/C [7]: 94 % of control

SMILES: CCN=C(N)C(N)=NCC (tested in a mixture with another compound)
- T/C (endpoint: mean survival time, dose: 25.0 mg/kg/injection, schedule: Q04DX002 (ip), vehicle: saline with Tween-80): 98 % of control
- T/C [4]: 98 % of control
- T/C [5]: 93 % of control and 98 % of control
- T/C [6]: 96 % of control and 87 % of control
- T/C [7]: 93 % of control
